Test results from ChEMBL document CHEMBL1641539 (Bioorg Med Chem Lett, 2011).

What was measured:
[1] = target: Casein kinase I isoform gamma-2 (Homo sapiens) (UniProt P78368); experiment: Inhibition of human CK1gamma2 at 10 uM after 60 mins by TR-FRET assay; values are per cent of control
[2] = target: Mast/stem cell growth factor receptor Kit (Homo sapiens) (UniProt P10721); experiment: Inhibition of human c-Kit at 10 uM after 60 mins by TR-FRET assay; values are per cent of control
[3] = target: Protein kinase C eta type (Homo sapiens) (UniProt P24723); experiment: Inhibition of human PKCeta at 10 uM after 60 mins by TR-FRET assay; values are per cent of control
[4] = target: Tyrosine-protein kinase receptor UFO (Homo sapiens) (UniProt P30530); experiment: Inhibition of human Axl at 10 uM after 60 mins by TR-FRET assay; values are per cent of control
[5] = target: High affinity nerve growth factor receptor (Homo sapiens) (UniProt P04629); experiment: Inhibition of human TrkA at 10 uM after 60 mins by TR-FRET assay; conditions: values are per cent of control
[6] = target: Glycogen synthase kinase-3 beta (Homo sapiens) (UniProt P49841); experiment: Inhibition of human GSK3-beta at 10 uM after 60 mins by TR-FRET assay; values are per cent of control
[7] = target: Mitogen-activated protein kinase kinase kinase 5 (Homo sapiens) (UniProt Q99683); experiment: Inhibition of human ASK1 at 10 uM after 60 mins by TR-FRET assay; values are per cent of control
[8] = target: Rhodopsin kinase GRK7 (Homo sapiens) (UniProt Q8WTQ7); experiment: Inhibition of human GRK7 at 10 uM after 60 mins by TR-FRET assay; values are per cent of control
[9] = target: Proto-oncogene tyrosine-protein kinase receptor Ret (Homo sapiens) (UniProt P07949); experiment: Inhibition of human Ret at 10 uM after 60 mins by TR-FRET assay; values are per cent of control
[10] = target: Serine/threonine-protein kinase MARK2 (Homo sapiens) (UniProt Q7KZI7); experiment: Inhibition of human PAR-1Balpha at 10 uM after 60 mins by TR-FRET assay; values are per cent of control
[11] = species on record: Homo sapiens; experiment: Inhibition of human PKA at 10 uM after 60 mins by TR-FRET assay; values are per cent of control
[12] = target: Serine/threonine-protein kinase PLK3 (Homo sapiens) (UniProt Q9H4B4); experiment: Inhibition of human Plk3 at 10 uM after 60 mins by TR-FRET assay; values are per cent of control
[13] = target: Protein kinase C beta type (Homo sapiens) (UniProt P05771); experiment: Inhibition of human PKCbeta1 at 10 uM after 60 mins by TR-FRET assay; values are per cent of control
[14] = target: Platelet-derived growth factor receptor alpha (Homo sapiens) (UniProt P16234); experiment: Inhibition of human PDGFRalpha at 10 uM after 60 mins by TR-FRET assay; values are per cent of control
[15] = target: NUAK family SNF1-like kinase 1 (Homo sapiens) (UniProt O60285); experiment: Inhibition of human ARK5 at 10 uM after 60 mins by TR-FRET assay; values are per cent of control
[16] = target: Mitogen-activated protein kinase 8 (Homo sapiens, UniProt P45983); experiment: Inhibition of human JNK1alpha1 at 10 uM after 60 mins by TR-FRET assay; conditions: values are per cent of control
[17] = target: Tyrosine-protein kinase ITK/TSK (Homo sapiens) (UniProt Q08881); experiment: Inhibition of human Itk at 10 uM after 60 mins by TR-FRET assay; conditions: values are per cent of control
[18] = target: Mitogen-activated protein kinase 11 (Homo sapiens) (UniProt Q15759); experiment: Inhibition of human SAPK2b at 10 uM after 60 mins by TR-FRET assay; conditions: values are per cent of control
[19] = target: CDK3/cyclin E (Homo sapiens) (UniProt P24864+O96020+Q00526); experiment: Inhibition of human CDK3/cyclinE at 10 uM after 60 mins by TR-FRET assay; values are per cent of control
[20] = target: MAP kinase-activated protein kinase 2 (Homo sapiens) (UniProt P49137); experiment: Inhibition of human MAPKAP-K2 at 10 uM after 60 mins by TR-FRET assay; conditions: values are per cent of control
[21] = target: Protein kinase C epsilon type (Homo sapiens) (UniProt Q02156); experiment: Inhibition of human PKCepsilon at 10 uM after 60 mins by TR-FRET assay; values are per cent of control
[22] = target: Serine/threonine-protein kinase ULK2 (Homo sapiens) (UniProt Q8IYT8); experiment: Inhibition of human ULK2 at 10 uM after 60 mins by TR-FRET assay; values are per cent of control
[23] = target: Maternal embryonic leucine zipper kinase (Homo sapiens) (UniProt Q14680); experiment: Inhibition of human MELK at 10 uM after 60 mins by TR-FRET assay; values are per cent of control
[24] = target: Serine/threonine-protein kinase BRSK1 (Homo sapiens) (UniProt Q8TDC3); experiment: Inhibition of human BrSK1 at 10 uM after 60 mins by TR-FRET assay; values are per cent of control
[25] = target: Fibroblast growth factor receptor 4 (Homo sapiens) (UniProt P22455); experiment: Inhibition of human FGFR4 at 10 uM after 60 mins by TR-FRET assay; values are per cent of control
[26] = target: Casein kinase II (Homo sapiens) (UniProt P67870+P68400+P19784); experiment: Inhibition of human CK2 at 10 uM after 60 mins by TR-FRET assay; values are per cent of control
[27] = target: Tyrosine-protein kinase Blk (Mus musculus) (UniProt P16277); experiment: Inhibition of mouse Blk at 10 uM after 60 mins by TR-FRET assay; values are per cent of control
[28] = target: Serine/threonine-protein kinase PAK 2 (Homo sapiens) (UniProt Q13177); experiment: Inhibition of human PAK2 at 10 uM after 60 mins by TR-FRET assay; values are per cent of control

Maternal embryonic leucine zipper kinase (Homo sapiens), sequence (Q14680 whole entry, looked up): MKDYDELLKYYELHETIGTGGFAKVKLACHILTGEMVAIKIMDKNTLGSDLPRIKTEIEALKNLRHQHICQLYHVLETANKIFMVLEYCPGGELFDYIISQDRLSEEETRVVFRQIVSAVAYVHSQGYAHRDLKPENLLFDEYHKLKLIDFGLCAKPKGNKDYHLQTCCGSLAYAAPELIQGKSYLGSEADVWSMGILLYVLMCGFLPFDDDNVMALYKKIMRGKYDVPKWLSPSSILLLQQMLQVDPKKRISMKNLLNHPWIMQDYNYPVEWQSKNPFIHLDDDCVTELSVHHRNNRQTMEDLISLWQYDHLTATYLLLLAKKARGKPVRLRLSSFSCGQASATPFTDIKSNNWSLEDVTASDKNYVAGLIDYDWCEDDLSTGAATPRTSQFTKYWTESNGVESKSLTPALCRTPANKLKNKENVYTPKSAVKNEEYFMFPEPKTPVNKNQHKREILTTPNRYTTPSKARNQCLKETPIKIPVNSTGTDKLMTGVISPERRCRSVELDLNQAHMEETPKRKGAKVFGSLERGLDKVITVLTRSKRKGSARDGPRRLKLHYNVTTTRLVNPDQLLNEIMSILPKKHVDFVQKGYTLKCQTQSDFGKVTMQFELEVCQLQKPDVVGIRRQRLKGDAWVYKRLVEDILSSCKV
Protein kinase C beta type (Homo sapiens), sequence (P05771 2-671 limits assumed): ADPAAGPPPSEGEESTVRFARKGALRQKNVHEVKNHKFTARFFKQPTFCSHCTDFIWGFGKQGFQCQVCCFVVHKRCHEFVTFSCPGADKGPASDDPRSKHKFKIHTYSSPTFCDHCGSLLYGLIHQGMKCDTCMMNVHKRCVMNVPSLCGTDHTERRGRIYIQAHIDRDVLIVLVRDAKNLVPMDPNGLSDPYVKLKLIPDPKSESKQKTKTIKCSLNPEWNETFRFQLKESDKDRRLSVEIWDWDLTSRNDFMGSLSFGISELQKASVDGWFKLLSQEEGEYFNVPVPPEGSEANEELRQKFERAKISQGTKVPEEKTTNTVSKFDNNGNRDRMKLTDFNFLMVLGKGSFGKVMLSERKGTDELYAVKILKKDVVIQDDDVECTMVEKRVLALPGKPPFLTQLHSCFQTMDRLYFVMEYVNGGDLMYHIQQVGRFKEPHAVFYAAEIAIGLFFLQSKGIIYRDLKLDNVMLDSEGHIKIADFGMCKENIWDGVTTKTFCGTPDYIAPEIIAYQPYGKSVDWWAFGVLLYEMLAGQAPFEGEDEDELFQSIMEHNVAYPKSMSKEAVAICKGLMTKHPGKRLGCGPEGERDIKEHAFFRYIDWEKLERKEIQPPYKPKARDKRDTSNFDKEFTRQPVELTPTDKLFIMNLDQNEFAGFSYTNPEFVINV
Tyrosine-protein kinase ITK/TSK (Homo sapiens), sequence (Q08881 whole entry): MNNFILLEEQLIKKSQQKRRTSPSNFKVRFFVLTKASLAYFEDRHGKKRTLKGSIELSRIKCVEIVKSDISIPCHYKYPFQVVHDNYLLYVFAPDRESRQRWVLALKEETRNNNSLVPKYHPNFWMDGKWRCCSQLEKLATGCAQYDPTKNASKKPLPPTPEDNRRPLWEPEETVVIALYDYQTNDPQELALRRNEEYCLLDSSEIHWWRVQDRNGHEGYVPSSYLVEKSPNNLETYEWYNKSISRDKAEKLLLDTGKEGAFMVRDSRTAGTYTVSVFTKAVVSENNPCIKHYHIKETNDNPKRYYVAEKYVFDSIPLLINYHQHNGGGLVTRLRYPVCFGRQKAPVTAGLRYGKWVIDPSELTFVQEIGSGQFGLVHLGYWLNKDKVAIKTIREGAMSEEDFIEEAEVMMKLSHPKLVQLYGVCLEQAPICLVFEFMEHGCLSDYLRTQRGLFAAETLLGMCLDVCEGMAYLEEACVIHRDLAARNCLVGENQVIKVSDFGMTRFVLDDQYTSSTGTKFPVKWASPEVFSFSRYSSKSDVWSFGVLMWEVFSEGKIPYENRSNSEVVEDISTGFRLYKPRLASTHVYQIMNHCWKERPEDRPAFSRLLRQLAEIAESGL
Mitogen-activated protein kinase 8, sequence (P45983 whole entry): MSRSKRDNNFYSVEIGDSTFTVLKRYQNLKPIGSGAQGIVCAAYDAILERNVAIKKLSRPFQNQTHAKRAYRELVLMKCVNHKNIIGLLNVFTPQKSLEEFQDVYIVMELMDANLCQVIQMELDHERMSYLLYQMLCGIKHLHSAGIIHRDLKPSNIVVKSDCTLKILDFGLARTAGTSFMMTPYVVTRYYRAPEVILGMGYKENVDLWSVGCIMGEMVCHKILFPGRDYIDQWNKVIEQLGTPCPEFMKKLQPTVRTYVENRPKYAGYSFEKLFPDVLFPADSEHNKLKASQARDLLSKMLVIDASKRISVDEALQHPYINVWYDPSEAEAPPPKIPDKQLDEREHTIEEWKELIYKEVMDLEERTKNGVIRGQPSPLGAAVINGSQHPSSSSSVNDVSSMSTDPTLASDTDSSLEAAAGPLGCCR
Mitogen-activated protein kinase kinase kinase 5 (Homo sapiens), sequence (Q99683 whole entry): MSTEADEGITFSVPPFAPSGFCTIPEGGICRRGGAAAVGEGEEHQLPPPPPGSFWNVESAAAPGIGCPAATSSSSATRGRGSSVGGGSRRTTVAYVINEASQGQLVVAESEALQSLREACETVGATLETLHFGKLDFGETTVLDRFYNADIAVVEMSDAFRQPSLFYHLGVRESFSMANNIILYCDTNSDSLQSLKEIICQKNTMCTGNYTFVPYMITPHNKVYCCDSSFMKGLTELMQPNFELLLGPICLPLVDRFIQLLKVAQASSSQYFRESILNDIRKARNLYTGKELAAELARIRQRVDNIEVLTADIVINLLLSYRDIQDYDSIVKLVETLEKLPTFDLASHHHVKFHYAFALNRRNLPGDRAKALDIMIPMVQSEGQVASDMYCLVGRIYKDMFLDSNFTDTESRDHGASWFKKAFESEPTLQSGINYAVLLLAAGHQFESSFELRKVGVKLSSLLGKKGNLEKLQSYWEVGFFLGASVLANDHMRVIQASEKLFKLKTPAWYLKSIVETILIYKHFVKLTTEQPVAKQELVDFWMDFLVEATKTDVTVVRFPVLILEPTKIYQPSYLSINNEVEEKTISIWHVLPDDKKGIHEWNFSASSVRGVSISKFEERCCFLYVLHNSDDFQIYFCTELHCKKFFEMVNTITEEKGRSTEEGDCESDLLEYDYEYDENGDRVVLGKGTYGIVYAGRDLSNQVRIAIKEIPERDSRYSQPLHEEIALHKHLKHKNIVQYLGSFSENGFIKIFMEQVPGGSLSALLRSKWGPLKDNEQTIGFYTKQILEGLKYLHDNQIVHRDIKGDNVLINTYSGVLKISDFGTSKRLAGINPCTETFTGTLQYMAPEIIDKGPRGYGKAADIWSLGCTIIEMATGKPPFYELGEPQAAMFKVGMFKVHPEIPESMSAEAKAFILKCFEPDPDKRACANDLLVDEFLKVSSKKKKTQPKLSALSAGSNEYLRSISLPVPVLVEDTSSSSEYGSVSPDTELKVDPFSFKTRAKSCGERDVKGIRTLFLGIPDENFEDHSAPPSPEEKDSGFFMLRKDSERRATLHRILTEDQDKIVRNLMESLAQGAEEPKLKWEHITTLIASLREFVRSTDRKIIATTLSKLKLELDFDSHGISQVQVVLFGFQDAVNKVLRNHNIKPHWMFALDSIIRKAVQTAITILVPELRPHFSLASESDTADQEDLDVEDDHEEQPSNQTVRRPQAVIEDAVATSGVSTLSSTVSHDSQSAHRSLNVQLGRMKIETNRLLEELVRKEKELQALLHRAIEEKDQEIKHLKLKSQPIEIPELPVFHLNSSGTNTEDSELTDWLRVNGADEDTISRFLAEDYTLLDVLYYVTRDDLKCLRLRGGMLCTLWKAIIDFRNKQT
Casein kinase I isoform gamma-2 (Homo sapiens), sequence (P78368 whole entry, looked up, canonical isoform): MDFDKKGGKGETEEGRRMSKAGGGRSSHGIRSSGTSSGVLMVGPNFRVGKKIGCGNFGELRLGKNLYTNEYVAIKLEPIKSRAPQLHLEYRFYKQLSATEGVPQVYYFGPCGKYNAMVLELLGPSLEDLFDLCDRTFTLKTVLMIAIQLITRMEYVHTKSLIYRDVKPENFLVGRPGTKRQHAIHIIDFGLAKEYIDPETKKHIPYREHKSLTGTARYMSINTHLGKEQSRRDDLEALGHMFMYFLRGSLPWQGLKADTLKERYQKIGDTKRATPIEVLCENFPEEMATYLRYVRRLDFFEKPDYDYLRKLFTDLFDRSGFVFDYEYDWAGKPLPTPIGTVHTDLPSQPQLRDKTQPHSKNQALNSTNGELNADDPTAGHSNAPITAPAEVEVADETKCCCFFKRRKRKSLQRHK
Fibroblast growth factor receptor 4 (Homo sapiens), sequence (P22455 22-802 limits assumed): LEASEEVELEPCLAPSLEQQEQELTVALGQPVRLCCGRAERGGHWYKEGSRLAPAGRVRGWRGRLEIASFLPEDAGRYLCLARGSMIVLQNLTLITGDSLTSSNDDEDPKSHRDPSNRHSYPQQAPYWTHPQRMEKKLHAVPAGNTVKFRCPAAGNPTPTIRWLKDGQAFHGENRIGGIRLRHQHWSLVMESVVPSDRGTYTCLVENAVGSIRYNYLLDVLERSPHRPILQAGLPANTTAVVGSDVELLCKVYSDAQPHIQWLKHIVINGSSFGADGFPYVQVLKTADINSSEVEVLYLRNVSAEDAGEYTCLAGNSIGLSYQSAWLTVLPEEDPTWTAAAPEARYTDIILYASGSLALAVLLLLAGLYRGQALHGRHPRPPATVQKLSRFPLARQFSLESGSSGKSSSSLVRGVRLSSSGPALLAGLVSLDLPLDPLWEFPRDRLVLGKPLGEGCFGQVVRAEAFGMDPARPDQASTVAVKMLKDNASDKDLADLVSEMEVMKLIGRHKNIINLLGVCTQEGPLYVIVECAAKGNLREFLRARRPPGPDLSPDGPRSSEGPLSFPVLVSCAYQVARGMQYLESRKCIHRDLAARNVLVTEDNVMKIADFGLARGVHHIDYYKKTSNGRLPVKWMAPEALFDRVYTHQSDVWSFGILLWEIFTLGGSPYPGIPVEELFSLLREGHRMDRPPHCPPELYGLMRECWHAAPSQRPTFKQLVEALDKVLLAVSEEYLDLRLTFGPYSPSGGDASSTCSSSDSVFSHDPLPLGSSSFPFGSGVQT

Work on `S=c1[nH]nc(-c2ccncc2)n1-c1ccc2ccccc2c1` yielded a residual activity [1] of 99%, a residual activity [2] of 108% and a residual activity [3] of 107%. The residual activity [4] was 110%, the residual activity [5] was 116% and the residual activity [6] was 90%. For the same compound, the residual activity [7] was 102%, the residual activity [8] was 124% and the residual activity [9] was 108%. The residual activity [10] was 110%, the residual activity [11] was 93% and the residual activity [12] was 106%. For the same compound, the residual activity [13] was 109%, the residual activity [14] was 99% and the residual activity [15] was 103%. The residual activity [16] was 110%, the residual activity [17] was 103% and the residual activity [18] was 90%. The residual activity [19] was 94%, the residual activity [20] was 106% and the residual activity [21] was 100%. It also gave a residual activity [22] of 103%, a residual activity [23] of 105% and a residual activity [24] of 102%. The residual activity [25] was 95%, the residual activity [26] was 110% and the residual activity [27] was 107%. The residual activity [28] was 108%.
